Results reported in paper PMC4640066 (Nature Communications, 2015).

Experiments:
α/β-tubulin = molecular target: T1, α/β-tubulin (Sus scrofa, UniProt P02550+P02554); experiment: Tryptophan-based drug-binding assay, α/β-tubulin; set-up: species or system porcine; conditions: tryptophan fluorescence decrease; 1 μM protein; mean±s.d., three independent experiments
T1 construct: α/β-Tubulin was purified from porcine brain; from tissue; host or cells: porcine brain
Experimental: γ-TuSC was purified as described. Briefly, γ-TuSC was expressed in HighFive cells and purified by sequential steps of Ni-NTA (Macherei-Nagel) purification, MonoQ column purification (GE Healthcare) and size exclusion (Superdex 200 column, GE Healthcare)[14]. α/β-Tubulin was purified from porcine brain through four cycles of polymerization and depolymerization using 1 M PIPES buffer (1 M PIPES-KOH, 1 mM EGTA, 1 mM MgCl2, pH 6.8) for effective removal of MT-associated proteins.
(§1) Gel filtration buffer for γ-tubulin purification (50 mM MES pH 6.6, 500 mM KCl, 5 mM MgCl2, 1 mM EGTA and 1 mM DTT) supplemented with 10% of glycerol was used as an assay buffer. γ-tubulin and α/β-tubulin were diluted in this assay buffer to reach a final protein concentration of 1 μM. A final concentration of 10 μM or 1 mM GTP was added to the samples. Proteins were incubated for 30 min with compounds (final DMSO concentration was 1%; 2% for AG1 and gatastatin). […] Dissociation constants were calculated from fitting curves of decreasing fluorescence (ΔFL) using the GraphPad Prizm software.

human γ-tubulin [1] = molecular target: T2, human γ-tubulin (Homo sapiens, UniProt P23258); experiment: Tryptophan-based drug-binding assay, γ-tubulin; conditions: for Ratio of Kd[α/β-tubulin]/Kd[γ-tubulin]: selectivity for γ-tubulin over α/β-tubulin; for Kd: tryptophan fluorescence decrease, 1 μM protein, mean±s.d., three independent experiments
T2 construct: myc (C); 6His (C); made in house; host or cells: Sf21 insect cells (baculovirus)
T2 sequence (P23258 whole entry): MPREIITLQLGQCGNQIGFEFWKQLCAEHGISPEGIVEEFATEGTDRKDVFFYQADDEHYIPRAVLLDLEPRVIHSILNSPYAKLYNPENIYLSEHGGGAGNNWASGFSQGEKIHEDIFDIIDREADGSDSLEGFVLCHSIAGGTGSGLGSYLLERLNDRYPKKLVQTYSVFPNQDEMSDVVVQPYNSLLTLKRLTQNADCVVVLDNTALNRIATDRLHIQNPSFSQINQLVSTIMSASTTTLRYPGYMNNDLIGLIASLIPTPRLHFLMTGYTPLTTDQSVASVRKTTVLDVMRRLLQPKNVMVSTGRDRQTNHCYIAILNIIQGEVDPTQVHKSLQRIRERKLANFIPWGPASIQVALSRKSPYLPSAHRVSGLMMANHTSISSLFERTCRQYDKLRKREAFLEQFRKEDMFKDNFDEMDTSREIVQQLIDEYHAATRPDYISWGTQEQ
Experimental: In brief, 0.7 × 10^6 cells ml^−1 were infected with the γ-tubulin baculovirus. After 48 h, cells were collected by centrifugation at […] for 10 min and flash-frozen in liquid nitrogen and stored at −80 °C. Purification was carried out as described with slight modifications. […] Imidazole (final 10 mM) was added and the lysate was centrifuged again at 192,800g for 30 min at 4 °C. […] Ni-NTA Agarose was then washed twice with wash buffer 1 (lysis buffer containing 25 mM imidazole) and wash buffer 2 (50 mM MES pH 6.6, 500 mM KCl, 5 mM MgCl2, 10% glycerol, 10 μM GTP and 1 mM DTT) containing 25 mM imidazole. γ-Tubulin was eluted with wash buffer 2 containing 200 mM imidazole.
Monomeric γ-tubulin was prepared using a size exclusion column HiLoad 16/60 Superdex 200 pre-equilibrated with gel filtration buffer (50 mM MES pH 6.6, 500 mM KCl, 5 mM MgCl2, 1 mM EGTA, 10 μM GTP and 1 mM DTT). The peak fractions representing monomeric γ-tubulin were identified by A280 and confirmed using SDS–PAGE. Protein was concentrated using a Vivaspin concentrator (Sartorius) and supplemented with 10% glycerol, following snap-freezing in liquid nitrogen and storage at −80 °C.
as §1

human γ-tubulin [2] = molecular target: T2, human γ-tubulin; experiment: Inhibition of GTP binding of γ-tubulin (α-[32P]-GTP crosslinking assay); conditions: 60 μM compound; 70 nM γ-tubulin, 100 nM α-[32P]-GTP; mean±s.d.
Experimental: For analysis of the effect of drugs on GTP binding of γ-tubulin, 70 nM of purified human γ-tubulin in GTP-binding buffer (50 mM MES, 5 mM MgCl2, 1 mM EGTA, pH 6.6) was incubated with or without compounds for 15 min at 20 °C. A final concentration of 100 nM of α-[^32P]-GTP was added and incubated at 20 °C for 30 min. After incubation, bound α-[^32P]-GTP was crosslinked to γ-tubulin for 60 s by illumination with a ultraviolet lamp using CL-1000 Ultraviolet Crosslinker. Protein with the crosslinked GTP was separated from unbound nucleotide by TCA precipitation and SDS–PAGE, and ^32P labelling was measured using a Typhoon FLA-7000 (General Electronic Company). Band intensities were quantified with the ImageJ software.

[3] = test system: γ-tubulin-dependent, RanQ69L-stimulated aster formation; experiment: RanQ69L-stimulated aster formation in M-phase Xenopus egg extracts; assay type: biochemical
Experimental: (§2) Cytostatic factor (CSF)-arrested M phase Xenopus egg extracts (CSF extracts) were prepared. Briefly, unfertilized eggs were crushed by 10,700g centrifugation for 20 min. M phase extracts were mixed with 0.5 μM Cy3-labelled α/β-tubulin and various concentrations of compounds. After incubation for 30 min on ice, 15 μM RanQ69L, 200 sperm nuclei per μl or 5% DMSO were added and incubated for 30 min on ice. After incubation for 20 min at 20 °C (for the samples with sperm nuclei, the incubation time was 30 min), 1.5 μl sample was fixed with 1.5 μl fix solution (0.3 volume of 37% formaldehyde, 0.6 volume of 80% glycerol and 0.1 vol of 10 × MMR solution (50 mM HEPES, pH 7.8, 1 M NaCl, 20 mM KCl, 10 mM MgCl2, 20 mM CaCl2 and 1 mM EDTA)), followed by the squash fix.
(§3) Images were acquired using a microscope (Axiovert 200 M; Carl Zeiss Inc.) equipped with a plan-Apochromat × 63 NA 1.3 oil objective lens (Carl Zeiss Inc.), a Cy3 emission filter and a Cascade:1 K (Photometrics Inc.) camera, and the AxioVision software (Carl Zeiss Inc.). The aster size and fluorescence intensity were quantified using a macro written in MATLAB[41].

[4] = test system: DMSO-stimulated, γ-tubulin-independent aster formation; experiment: DMSO-stimulated aster formation in M-phase Xenopus egg extracts; assay type: biochemical; conditions: M-phase-arrested Xenopus egg extracts, 5% DMSO, 20 min at 20 °C
Experimental: as §2, §3

[5] = test system: HeLa cells expressing EB3-EGFP (interphase); experiment: EB3-EGFP signal tracking, interphase cells; assay type: cell-based, human; conditions: 15 min; for Track length / Track lifetime / Velocity: interphase HeLa EB3-EGFP, mean±s.d.; for Track numbers: interphase, from a 144-μm^2 area inside the cell
Experimental: A HeLa ‘Kyoto' cell line stably expressing EB3-EGFP (a kind gift from Dr J. Ellenberg) was maintained in DMEM+GlutaMAX (Gibco) supplemented with 10% FBS, 2 mM L-glutamine, 100 U ml^−1 penicillin, 100 μg ml^−1 streptomycin, 1 mM sodium pyruvate and 0.5 mg ml^−1 G418. Cells were seeded into eight-well Lab-Tek chambers (Nunc, Rochester, NY) for 24-h prior imaging. For imaging, the medium was exchanged to Live Cell Imaging Solution (Molecular Probes Life Technologies) supplemented as described above and containing various concentrations of AG1 or gatastatin. Interphase cells were incubated with drugs for 15 min and mitotic cells were treated as described in Fig. 4c. Then, EB3 tracks were observed under a PerkinElmer UltraVIEW ERS Spinning Disk microscope (Software: UltraVIEW ERS Imaging Suite) equipped with a Plan-APOCHROMAT × 100/1.4 Oil DIC objective, a Confocal Scanner Unit (Yokogawa CSU 22), a Hamamatsu EM CCD camera (C9100-50) and a 488-nm Argon laser at 37 °C, and time-lapse sequences were performed for 60 s with a 400-ms interval. Automatic analysis of EB3-EGFP signal tracks was performed with ImageJ (http://imagej.nih.gov/ij/) and Matlab (Mathworks) as described.

HeLa cells = experiment: Analysis of interphase MT network; assay type: cell-based, human; conditions: 30 μM, 2.5 h
Experimental: HeLa cells were cultured in DMEM containing 10% FBS in a humidified atmosphere containing 5% CO2. After treatment with each compound for 2.5 h (interphase MT network) or 5 h (mitotic spindle), the cells were immediately fixed with cold MeOH (−20 °C). After blocking with PBS containing 0.5% bovine serum albumin, cells were incubated with anti-α-tubulin antibodies (1:500 dilution, Santa Cruz, Cat# sc-32293) to observe interphase cells, or with anti-BubR1 (1:250 dilution, BD Bioscience, Cat# 612502) and anti-α-tubulin (1:250 dilution, MBL, Cat# PM054) antibodies to observe mitotic spindle. After staining with Alexa^488-conjugated anti-mouse IgG (1:2,000 dilution, Invitrogen, Cat#A11001) and Alexa568-conjugated anti-rabbit IgG (1:2000 dilution, Invitrogen, Cat#A11011), cells were washed four times with PBS and mounted with PBS containing 0.1 μg ml^−1 DAPI. MTs and BubR1 signals were observed under a Leica LAS AF 6000 fluorescence microscope (Leica Microsystems) or an LSM 700 laser-scanning confocal microscope (Zeiss).

human γ-tubulin [6] = molecular target: T2, human γ-tubulin; experiment: GTP binding to recombinant γ-tubulin (UV crosslinking); conditions: 70 nM γ-tubulin, α-[32P]-GTP
Experimental: Supplementary Figure 2. Binding of GTP and GCP4 to recombinant human γ-tubulin
(a) GTP binding to γ-tubulin. 70 nM of γ-tubulin was mixed with indicated concentrations of α-[32P]-GTP, and cross-linked by UV irradiation. After separation of crosslinked γ-tubulin and unbound α-[32P]-GTP, radioactivity was detected with a phosphorimager. Band intensities were quantified with ImageJ. The Kd (121.1 nM) was calculated using GraphPad Prizm software. (b) Purified human γ-tubulin and GCP4 interaction was detected by gel filtration and SDS-PAGE. Equal volumes of γ-tubulin (1.5 µM) and GCP4 (4 µM), γ-tubulin (1.5 µM) and buffer, or GCP4 (4 µM) and buffer were mixed and incubated for 30 min at 20 °C. Proteins were separated by size exclusion column Superdex 200 10/300 GL pre-equilibrated with gel filtration buffer (50 mM MES pH6.6, 500 mM KCl, 5 mM MgSO4, 1 mM EGTA, 1 mM DTT, 10 µM GTP).
γ-Tubulin alone and GCP4 alone were eluted at retention times of 27 min and 24 min, respectively. The […]
GCP4 and γ-tubulin in these fractions were confirmed by SDS-PAGE and silver staining.
(1 picture or pasted object on this page, not shown here)

T1 sequence (P02554 whole entry): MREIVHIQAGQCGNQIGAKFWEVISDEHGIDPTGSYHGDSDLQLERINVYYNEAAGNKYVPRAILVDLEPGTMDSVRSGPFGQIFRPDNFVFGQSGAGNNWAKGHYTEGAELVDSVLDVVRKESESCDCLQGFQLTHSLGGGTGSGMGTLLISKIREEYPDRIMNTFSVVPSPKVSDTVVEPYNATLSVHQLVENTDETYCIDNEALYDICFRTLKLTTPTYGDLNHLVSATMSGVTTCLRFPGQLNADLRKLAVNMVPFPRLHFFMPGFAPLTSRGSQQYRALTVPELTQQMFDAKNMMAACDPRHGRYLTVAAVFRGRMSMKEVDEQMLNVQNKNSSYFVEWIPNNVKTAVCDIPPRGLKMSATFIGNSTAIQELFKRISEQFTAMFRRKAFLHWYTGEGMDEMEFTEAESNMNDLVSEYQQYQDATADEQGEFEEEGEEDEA
T1 sequence (P02550 whole entry): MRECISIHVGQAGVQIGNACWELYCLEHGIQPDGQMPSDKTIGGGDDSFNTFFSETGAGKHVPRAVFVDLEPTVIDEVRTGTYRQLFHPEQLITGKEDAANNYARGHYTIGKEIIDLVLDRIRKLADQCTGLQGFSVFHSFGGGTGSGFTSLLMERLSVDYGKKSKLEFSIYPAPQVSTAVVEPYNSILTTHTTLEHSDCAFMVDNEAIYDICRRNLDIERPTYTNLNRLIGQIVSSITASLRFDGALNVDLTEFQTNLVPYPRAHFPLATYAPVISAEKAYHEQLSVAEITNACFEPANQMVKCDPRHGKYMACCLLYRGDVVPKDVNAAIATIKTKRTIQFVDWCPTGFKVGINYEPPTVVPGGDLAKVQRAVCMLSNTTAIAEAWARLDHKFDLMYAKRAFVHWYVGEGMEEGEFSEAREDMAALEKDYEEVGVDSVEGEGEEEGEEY

In the case of `COc1cc2occ(-c3cc(OC)c4c(c3OC)OCO4)c(=O)c2cc1OC` [AG1, glaziovianin A, reference compound], the Kd (α/β-tubulin) is reported as 51.9 ± 36.4 µM, the “Ratio of Kd[α/β-tubulin]/Kd[γ-tubulin]” value (human γ-tubulin [1]) is reported as 0.61 and the Kd (human γ-tubulin [1]) is reported as 85.3 ± 22.8 µM. The “GTP binding (control %)” value (human γ-tubulin [2]) was 93.7±11.7%, the IC50 ([3]; M-phase-arrested Xenopus egg extracts, 15 μM RanQ69L, 20 min at 20 °C) was 0.44 µM and the “IC50[DMSO-aster]/IC50[RanQ69L-aster]” value ([3]; ratio of IC50 values) was 3.14. It also gave an IC50 [4] of 1.37 µM, a Track length ([5]; 1 μM) of 0.73±0.09 μm and a Track lifetime ([5]; 1 μM) of 3.30 ± 0.57 s. It also gave a Velocity ([5]; 1 μM) of 9.59±1.01 μm min^−1, a Track numbers ([5]; 1 μM) of 106±30 and a Track length ([5]; 3 μM) of 0.43±0.07 μm. For the same compound, the Track lifetime ([5]; 3 μM) was 2.20 ± 0.67 s, the Velocity ([5]; 3 μM) was 7.33±1.23 μm min^−1 and the Track numbers ([5]; 3 μM) was 110±42. The “Effect on interphase MT network” value (HeLa cells) was “caused partial depolymerization of interphase MT network”.
Compound `Nc1nc2c(ncn2[C@@H]2O[C@H](COP(=O)(O)OP(=O)(O)OP(=O)(O)O)[C@@H](O)[C@H]2O)c(=O)[nH]1` [GTP] has a Kd (human γ-tubulin [6]) of 0.121 µM.
With `COc1ccc(/C=c2\[nH]c(=O)/c(=C/c3cccc(C(=O)c4ccccc4)c3)[nH]c2=O)cc1` [KPU-406] the Kd (α/β-tubulin) was 26.3 ± 2 µM, the “Ratio of Kd[α/β-tubulin]/Kd[γ-tubulin]” value (human γ-tubulin [1]) was 0.57 and the Kd (human γ-tubulin [1]) was 46.1 ± 27.6 µM.
`COC(=O)Nc1nc2ccc(C(=O)c3cccs3)cc2[nH]1` [Nocodazole] was tested, and the Kd (α/β-tubulin) was 1.8 ± 0.6 µM, the “Ratio of Kd[α/β-tubulin]/Kd[γ-tubulin]” value (human γ-tubulin [1]) was 0.03 and the Kd (human γ-tubulin [1]) was 54.9 ± 19 µM.
`CC(C)(C)c1[nH]cnc1/C=c1\[nH]c(=O)/c(=C/c2ccccc2)[nH]c1=O` [Plinabulin] was tested, and the Kd (α/β-tubulin) was 0.5 ± 0.1 µM, the “Ratio of Kd[α/β-tubulin]/Kd[γ-tubulin]” value (human γ-tubulin [1]) was 0.01 and the “Ratio of Kd[α/β-tubulin]/Kd[γ-tubulin]” value (human γ-tubulin [1]; listed as plinabulin) was under 0.05. For the same compound, the Kd (human γ-tubulin [1]) was 83.3 ± 18.5 µM.
